Our source for the inhibition values is patent publication US9156837B2, “Heterocyclic compound” (Takeda Pharmaceutical Company Limited, priority 2011, dated 2015).

Experiment [1] addresses T1, RORγt (Homo sapiens, UniProt P51449).
T1 sequence (P51449 1-497 isoform P51449-2): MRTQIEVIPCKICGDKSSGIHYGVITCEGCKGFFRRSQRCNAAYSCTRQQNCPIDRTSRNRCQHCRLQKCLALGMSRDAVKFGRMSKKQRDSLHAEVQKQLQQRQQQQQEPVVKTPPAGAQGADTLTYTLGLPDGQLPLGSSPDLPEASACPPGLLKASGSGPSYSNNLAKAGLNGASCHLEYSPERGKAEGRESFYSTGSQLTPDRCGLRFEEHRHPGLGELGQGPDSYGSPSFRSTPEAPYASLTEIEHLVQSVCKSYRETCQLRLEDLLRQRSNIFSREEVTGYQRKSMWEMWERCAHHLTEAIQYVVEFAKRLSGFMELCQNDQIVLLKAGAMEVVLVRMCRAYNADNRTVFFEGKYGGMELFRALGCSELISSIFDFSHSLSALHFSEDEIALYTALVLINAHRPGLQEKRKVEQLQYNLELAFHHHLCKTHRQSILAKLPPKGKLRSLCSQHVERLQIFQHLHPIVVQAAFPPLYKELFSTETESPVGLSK
The experiment can be described thus: Cofactor recruitment test (Alpha Screen, biotinylated SRC-1 peptide). In kind it is biochemical. Conditions: test compound 1 μM, RORγt and biotinylated SRC-1 peptide, read-out: signal value inhibitory rate. As to the method: Cofactor recruitment test was performed by Alpha Screen (Histidine Detection Kit, PerkinElmer) method. First, a test compound was diluted with an assay buffer (50 mM Tris-HCl (pH 7.5), 50 mM KCl, 1 mM DTT, 0.1% BSA) and added to a 384 well plate by 5 μL. Then, RORγt diluted with an assay buffer to 125 nM was added by 10 μL each, after which solutions of 25 nM biotinylated SRC-1 peptide (biotin-[…]), 12.5 μg/mL acceptor beads and 12.5 μg/mL donor beads prepared with the assay buffer were added by 10 μL each. The mixture was stood in a dark place for 1 hr, and the signal value was measured by Envision (PerkinElmer).

In experiment [2] the test system is CD4 positive naive T cells (differentiation into Th17 cells). Briefly: Mouse Th17 cell differentiation induction test. Format: cell-based. The settings on record: 96 h; test compound 10 μM; BALB/c mouse CD4 positive naive T cells; 4 days; ELISA; read-out: inhibitory rate (IL-17A in culture supernatant, Th17 differentiation). As to the method: CD4 positive naive T cells were collected from the spleen cells of BALB/c mice (female, 8-11w) using CD4+CD62L+ T Cell Isolation kit II (Miltenyi Biotec). The CD4 positive naive T cells were plated in a 96 well plate (3×10^5 cells/well), stimulated (37° C. for culture) with anti-mouse CD3ε antibody (10 μg/mL, solid phase) and anti-CD28 antibody (5 μg/mL) for 4 days in the presence of anti-IFN-γ antibody, anti-IL-4 antibody, anti-IL-2 antibody, IL-6, TGF-β and IL-23 to allow for differentiation into Th17 cells. The compound was dissolved in DMSO and then added. The cells were cultured under these conditions for 4 days, the concentration of IL-17A in the culture supernatant obtained by centrifugation was measured by ELISA, and differentiation of the Th17 cells was evaluated.
In general terms: An ELISA detects its analyte on a solid surface through an enzyme-linked reagent.

Experiment [3] has as its system Peripheral blood mononuclear cells (PBMC). Briefly: Human PBMC IL17 production test. Format: cell-based. The settings on record: 72 h; test compound 10 μM; human PBMC stimulated by anti-CD3/CD28 Dynabeads; 3 days; ELISA; read-out: inhibitory rate (IL-17A in culture supernatant, IL-17 production). As to the method: Peripheral blood mononuclear cells (PBMC) collected from human peripheral blood by a density gradient centrifugation method were stimulated by Dynabeads (registered trade mark; anti-CD3/CD28 antibody) and cultured at 37° C. for 3 days. The compound was dissolved in DMSO and then added. After culture for 3 days under such conditions, the concentration of IL-17A in the culture supernatant obtained by centrifugation was measured by ELISA, and the activity of the compound on IL-17 production was evaluated.

The target of experiment [4] is T1, RORγt. The experiment can be described thus: RORγt binding test (TR-FRET, fluorescent-labeled cholesterol). Conditions: test compound 1 μM, histidine-tagged RORγt, read-out: binding inhibitory rate of fluorescent-labeled cholesterol to RORγt. As to the method: The binding activity of the test compound to RORγt was measured by a time resolved fluorescence resonance energy transfer method (TR-FRET) utilizing histidine-tagged RORγt, fluorescent-labeled cholesterol (BODIPY-cholesterol, AVIVA), and terbium-labeled anti-histidine tag antibody (Invitrogen). First, a test compound diluted with an assay buffer (20 mM Tris-HCl (pH 7.5), 100 mM NaCl, 1 mM DTT, 0.1% BSA) was added to a 384 well plate by 3 μL. Then, RORγt diluted with an assay buffer to 240 nM was added by 3 μL, after which fluorescent-labeled cholesterol diluted with the assay buffer to 12 μM was added by 3 μL, and the mixture was stood at room temperature for 20 min. Thereafter, a terbium-labeled anti-histidine tag antibody diluted with the assay buffer to 8 nM was added by 3 μL. The mixture was stood at room temperature for 20 min, and fluorescence intensity (excitation wavelength 320 nm, fluorescence wavelength 520 nm, delay time 100 microseconds) was measured by Envision (PerkinElmer).
The results (binding inhibitory rate of fluorescent-labeled cholesterol to RORγt at test compound 1 μM) measured by the above-mentioned method are shown in Table 2.

Experiment [5] has as its target T1, RORγt. Briefly: Jurkat reporter test (human IL-17 ROR response element luciferase). In kind it is cell-based. Conditions: test compound 3 μM; Jurkat cells transfected with IL-17 ROR response element luciferase reporter and RORγt vector; cultured overnight; read-out: luminescence level inhibitory rate. As to the method:
The Jurkat cells used for the reporter test were cultured in a culture medium (RPMI (Invitrogen), 10% FCS (AusGeneX), 100 U/mL penicillin, 100 μg/mL streptomycin). On the day of the test, 4×10^7 cells were recovered by a centrifugal operation (1000 rpm, 5 min.) and suspended in PBS (phosphate buffered saline) (Invitrogen). Thereafter, the cells were recovered again by a centrifugal operation, and suspended in 2 mL of R buffer (NEON transfection kit, Invitrogen). Then, a reporter vector 53 μg wherein a human IL-17 ROR response element was inserted into the upstream of luciferase of pGL 4.28 (Promega), and a vector (27 μg) wherein RORγt sequence was inserted into the downstream of CMV promoter were added to the cell suspension. Gene transfer was performed by Electroporation apparatus (NEON, Invitrogen) under the conditions of pulse voltage 1350 V, interval 10 milliseconds, number of times 3. The cells after gene transfer were suspended in 40 mL of a reaction medium (RPMI, 10% Lipid reduced FCS (HyClone), 10 mM HEPES (pH 7.5), 100 U/mL penicillin, 100 μg/mL streptomycin, 5 μM lovastatin), and plated in a 96 well plate by 90 μL. A test compound diluted with the reaction medium was added by 10 μL, and the cells were cultured overnight in an incubator. Bright-Glo (Promega) was added by 100 μL, and the mixture was stirred at room temperature for 10 min, and the luminescence level was measured by Envision (PerkinElmer).
The results (luminescence level inhibitory rate at test compound 3 μM) measured by the above-mentioned method are shown in Table 4.
In general terms: Reporter assays use an easily measured gene product as a stand-in for the process of interest.

Experiment [6] deals with CD4 positive naive T cells (differentiation into Th17 cells). The experiment can be described thus: Human Th17 cell differentiation induction test. Conditions: 144 h, test compound 10 μM, 6 days, ELISA, read-out: inhibitory rate (IL-17A in culture supernatant, Th17 differentiation). In kind it is cell-based. As to the method: Using peripheral blood mononuclear cells (PBMC) collected from human peripheral blood by a density gradient centrifugation method, CD4 positive naive T cells were collected. The CD4 positive naive T cells were plated in a 96 well plate (2×10^4 cells/well), and stimulated (37° C. for culture) with anti-CD3/28Ab Dynabeads for 6 days in the presence of IL-1β, IL-6, IL-23, TGFβ, anti-IFNγ Ab, anti-IL-4 Ab to allow for differentiation into Th17 cells. The compound was dissolved in DMSO and then added. After culture for 6 days, the concentration of IL-17A in the culture supernatant obtained by centrifugation was measured by ELISA, and differentiation of the Th17 cells was evaluated.

Regarding `COc1ccc(-c2c(-c3nc(CC(=O)NCC4CCOCC4)cs3)cnn2C(C)(C)C)cc1` [Example 39, 2-{2-[1-tert-butyl-5-(4-methoxyphenyl)-1H-pyrazol-4-yl]-1,3-thiazol-4-yl}-N-(tetrahydro-2H-pyran-4-ylmethyl)acetamide], the inhibition at 1 µM at RORγt [1] stood at 101%; at RORγt [4], 98.7%. For the same molecule, the inhibition at 10 µM worked out at 95% in experiment [2], 91.3% in experiment [3] and 100% in experiment [6]. Moreover, the inhibition at 3 µM at RORγt [5] is 101%.
